This is an account of results in publication PMC5122774, “Cloning of Glycerophosphocholine Acyltransferase (GPCAT) from Fungi and Plants” (The Journal of Biological Chemistry, 2016).

One data set has as its target T1, RcGPCAT (Ricinus communis, UniProt B9RK42).
T1 construct: gene GPC1
Put plainly: radiometric acyltransferase assay, yeast microsomes. It is filed as biochemical. Conditions: [14C]GPC 4 mM; pH 7.2 phosphate, 1% BSA, 30 °C.

Substrate in data set [1]: C[N+](C)(C)CCOP(=O)([O-])OC[C@H](O)CO
Described as above. The format is biochemical, Saccharomyces cerevisiae. The settings on record: 18:1-CoA as acyl donor, pH 7.2 phosphate, 1% BSA, 30 °C, labelled compound.

T1 sequence (B9RK42 whole entry, looked up): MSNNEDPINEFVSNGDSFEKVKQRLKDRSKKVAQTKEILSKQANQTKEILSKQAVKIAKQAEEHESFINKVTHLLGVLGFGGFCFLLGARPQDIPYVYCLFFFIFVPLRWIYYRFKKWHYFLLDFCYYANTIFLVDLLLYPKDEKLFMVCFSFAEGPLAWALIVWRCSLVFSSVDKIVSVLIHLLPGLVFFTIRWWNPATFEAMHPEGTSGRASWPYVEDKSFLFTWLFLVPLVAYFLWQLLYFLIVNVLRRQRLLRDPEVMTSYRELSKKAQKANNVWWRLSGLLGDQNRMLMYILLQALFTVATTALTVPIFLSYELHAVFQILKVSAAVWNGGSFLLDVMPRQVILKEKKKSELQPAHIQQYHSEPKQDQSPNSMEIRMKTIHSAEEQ

Regarding `CCCCCC[C@@H](O)C/C=C\CCCCCCCC(=O)SCCNC(=O)CCNC(=O)[C@H](O)C(C)(C)COP(=O)(O)OP(=O)(O)OC[C@H]1O[C@@H](n2cnc3c(N)ncnc32)[C@H](O)[C@@H]1OP(=O)(O)O` [ricinoleoyl-CoA], at RcGPCAT, the “radiometric acyltransferase assay, yeast microsomes” value is reported as “the castor GPCAT accepted all of the acyl-CoAs tested, including ricinoleoyl-CoA”.

B1: ScGPCAT (Gpc1p) (Saccharomyces cerevisiae S288C) (protein)
chain: MYKLDNNDIDDETNNSVSLTSLLEFLDPIASKVVSKYYHGSHLSKAEQKLRNFEGFRRRKPHHEHDSHHPHHLNRSRSFLQLEDFKVRALQRIRNLDKPLDSIFFKNSSRLEKAFYPFTLFNIFFIGFLMGRFPEWFHVYYTILFFVLMPIRFYTYYKTKNHYFLADFCYFVNMLCLLFIWIFPYSYSLFQSCFAFTFGTLCFAVITWRNSLVIHSIDKTTSCFIHIIPPCVMYVIYHGLPLEYKIERFPGAIIQSELDIKKNILWTSLYYLVWQSLYHYFITLKKSSKIKSGERMTSFEYLTTHQFKNFWAVKLRSPWPMIIYTLSQYFYQLFTMLLCGIWIRYKLAAALFLTIVFLWASHNGATYYIDHYGKNFEKEVDRLRLEVENLQQKLQPDSDAVISDASVNDKDYLNVNRDEDFDDSSSVSSKSD
notes: full-length, 52 kDa, eight predicted TM helices; pYES-DEST52 (GAL1 promoter) in yeast ale1Δ gpc1Δ, microsomal membranes
On to B1, for which the Km in data set [1] was 450 µM.

Broadly, the Km is the concentration of substrate that gives half-maximal velocity.
